Laboratory results from patent US11166924B2, “N-methyl-d-aspartate receptor allosteric modulators and methods for their use” (Qingdao Primedicine Pharmaceutical Company, Ltd., priority 2016, dated 2021).
Blank lines part the entries; values can stand above or below the molecule they belong to.

Legend:
[1] = biological target: T1, GluN1/GluN2A NMDARs (Rattus norvegicus, UniProt P35439+Q00959); experiment: Whole-cell patch clamp recordings in HEK293 cells transfected with GluN1/GluN2A; type: cell-based; details: for activation at 50 µM / activation at 100 µM: HEK293, Table 2, read-out: Normalized Potentiation GluN1/GluN2A; for activation at 50 µM: 50 μM (footnote *); for Normalized Potentiation / EC50: Table 1; for Normalized Potentiation: positive modulation of GluN1/GluN2A NMDARs, concentration not given; for EC50: potentiation, read-out: EC50
T1 construct: expressed in transfected cells; host or cells: HEK293
T1 sequence (Q00959 23-1464, other chains not shown): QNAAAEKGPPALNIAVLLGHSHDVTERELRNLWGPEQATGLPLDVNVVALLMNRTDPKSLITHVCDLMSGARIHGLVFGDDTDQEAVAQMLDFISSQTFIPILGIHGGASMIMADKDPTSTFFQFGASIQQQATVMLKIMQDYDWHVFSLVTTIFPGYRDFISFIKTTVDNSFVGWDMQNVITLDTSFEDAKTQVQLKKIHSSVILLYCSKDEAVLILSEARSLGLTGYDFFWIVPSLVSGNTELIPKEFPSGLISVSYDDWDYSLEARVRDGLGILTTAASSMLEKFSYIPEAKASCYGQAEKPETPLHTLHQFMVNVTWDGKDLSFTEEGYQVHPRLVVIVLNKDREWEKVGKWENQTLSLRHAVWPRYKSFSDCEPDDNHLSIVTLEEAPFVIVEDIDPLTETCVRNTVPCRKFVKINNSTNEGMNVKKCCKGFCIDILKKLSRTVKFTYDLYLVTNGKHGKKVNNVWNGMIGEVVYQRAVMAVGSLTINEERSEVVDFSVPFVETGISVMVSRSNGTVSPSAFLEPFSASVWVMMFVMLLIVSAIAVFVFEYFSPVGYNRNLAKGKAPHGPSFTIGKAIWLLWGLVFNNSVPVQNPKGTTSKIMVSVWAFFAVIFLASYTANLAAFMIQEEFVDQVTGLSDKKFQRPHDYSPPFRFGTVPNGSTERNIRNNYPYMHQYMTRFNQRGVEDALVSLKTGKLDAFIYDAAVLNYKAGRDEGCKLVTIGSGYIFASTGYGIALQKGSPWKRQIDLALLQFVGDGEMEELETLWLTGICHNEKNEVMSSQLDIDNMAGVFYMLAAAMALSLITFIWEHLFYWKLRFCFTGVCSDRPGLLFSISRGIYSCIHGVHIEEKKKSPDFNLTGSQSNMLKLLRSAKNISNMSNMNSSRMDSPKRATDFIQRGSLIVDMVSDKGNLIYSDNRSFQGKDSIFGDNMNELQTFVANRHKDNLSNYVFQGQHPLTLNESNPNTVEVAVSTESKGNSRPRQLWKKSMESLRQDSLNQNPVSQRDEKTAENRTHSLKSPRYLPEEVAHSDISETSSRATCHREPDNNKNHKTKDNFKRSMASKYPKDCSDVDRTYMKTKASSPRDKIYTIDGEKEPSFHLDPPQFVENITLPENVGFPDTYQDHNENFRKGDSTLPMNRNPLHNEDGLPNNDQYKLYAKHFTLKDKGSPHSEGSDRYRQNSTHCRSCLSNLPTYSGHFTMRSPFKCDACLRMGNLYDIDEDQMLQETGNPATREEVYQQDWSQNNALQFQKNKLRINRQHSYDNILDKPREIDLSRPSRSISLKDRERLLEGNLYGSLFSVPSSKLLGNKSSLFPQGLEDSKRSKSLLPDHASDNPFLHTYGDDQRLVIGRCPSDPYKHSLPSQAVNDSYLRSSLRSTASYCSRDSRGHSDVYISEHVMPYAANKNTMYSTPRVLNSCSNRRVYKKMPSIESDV
Procedure: Cells were transfected with a combination of pcDNA3-CMV expression vectors, each of which expressed one of the rat recombinant (GluN2AWT, GluN1WT, GluN2BWT) subunits. The sequences of all plasmids were confirmed by automated DNA sequencing. Human Embryonic Kidney 293 (HEK293 cells) were cultured in Dulbecco's Modified Eagle's Medium (DMEM) (Invitrogen) supplemented with 10% fetal bovine serum (FBS). When HEK293 cells achieved 90% confluence, plasmids of either GluN1 & GluN2A or GluN1 & GluN2B were co-transfected into the cells using Lipofectamine 2000 (Invitrogen, 11668019) according to manufacturer's instructions. HEK293 cells were then maintained in the 37° C. incubator with […] and 5% CO2 for 48 hrs before being used in experiments. The transfection ratios for the NMDAR subunit combinations were all 1:1 (GluN1/GluN2A or GluN1/GluN2B).
Whole cell patch-clamp recordings were performed under voltage-clamp mode using an Axopatch 200B or 1D patch-clamp amplifier (Molecular Devices). Whole-cell currents were recorded at a holding potential of −60 mV unless indicated elsewhere, and signals were filtered at 2 kHz, digitized at 10 kHz (Digidata 1322A). Recording pipettes (3-5 MΩ) were filled with intracellular solution containing (mM): CsCl 140, HEPES 10, Mg-ATP 4, QX-314 5, pH 7.20; osmolarity, 290-295 mOsm. BAPTA (10 mM) was added in the intracellular solution (unless otherwise specified). The coverslips were continuously superfused with extracellular solution containing (mM): NaCl 140, KCl 5.4, HEPES 10, CaCl2 1.3, glucose 20, pH 7.4; osmolarity, 305-315 mOsm. NMDA-induced currents were applied by NMDA through perfusion fast-step (Warner Instruments). With perfusion fast-step system, NMDA application was achieved by using a two-square barrel glass tubing and depending on the age of the cultured neurons, CNQX (10 μM), TTX (0.5 μM) or BIC (10 μM) were added in the extracellular solution to minimize the activation of ionotropic glutamate receptors and voltage-gated sodium channels, respectively. All experiments were performed at room temperature. Recordings from at least six HEK293 cells/neurons were performed for all active compounds. Data were pooled among HEK293 cells or primary neurons and composite dose-response data were fitted by the equation Percentage Response=100×Relative Efficacy/[1+(EC50/Concentration)nH], where EC50 is the concentration of agonist that produces a half-maximal response, relative efficacy is the response at maximally effective concentration relative to the maximal response of glutamate, and nH is the Hill slope.
GluN1/GluN2A NMDAR subtypes are an attractive target for positive allosteric modulation. The present inventors employed in silico computational drug discovery methods to conduct a virtual screen of purchasable lead-like compounds from the ZINC database (Irwin, J., et al. Abstr Pap Am Chem Soc (2005) 230:U1009) and some synthetic compounds to identify potential GluN1/GluN2A-NMDAR modulators. The in silico methods included large-scale docking against the interstice interface of the GluN1/GluN2A heterodimer and consensus scoring to select compounds for empirical testing. Candidate compounds were further screened by using GluN1/GluN2A transiently transfected in human embryonic kidney (HEK293) cells and tested by whole-cell patch clamp recordings.
The inventors used transiently transfected HEK293 cells expressing either GluN1/GluN2A or GluN1/GluN2B NMDARs and tested by whole-cell voltage patch clamp recordings to see whether selected compounds were controlling the subtype selectivity profile of the drugs.
Whole-cell patch clamp recordings were performed to measure glutamate evoked currents with chloride-based pipette solutions at a holding potential of −60 mV.

[2] = biological target: T2, GluN1/GluN2B NMDARs (Rattus norvegicus, UniProt P35439+Q00960); experiment: Whole-cell patch clamp recordings in HEK293 cells transfected with GluN1/GluN2B; type: cell-based; details: for activation at 50 µM / activation at 100 µM: HEK293, Table 2, read-out: Normalized Potentiation GluN1/GluN2B; for activation at 50 µM: 50 μM (footnote *)
T2 construct: expressed in transfected cells; host or cells: HEK293
T2 sequence (Q00960 27-1482, other chains not shown): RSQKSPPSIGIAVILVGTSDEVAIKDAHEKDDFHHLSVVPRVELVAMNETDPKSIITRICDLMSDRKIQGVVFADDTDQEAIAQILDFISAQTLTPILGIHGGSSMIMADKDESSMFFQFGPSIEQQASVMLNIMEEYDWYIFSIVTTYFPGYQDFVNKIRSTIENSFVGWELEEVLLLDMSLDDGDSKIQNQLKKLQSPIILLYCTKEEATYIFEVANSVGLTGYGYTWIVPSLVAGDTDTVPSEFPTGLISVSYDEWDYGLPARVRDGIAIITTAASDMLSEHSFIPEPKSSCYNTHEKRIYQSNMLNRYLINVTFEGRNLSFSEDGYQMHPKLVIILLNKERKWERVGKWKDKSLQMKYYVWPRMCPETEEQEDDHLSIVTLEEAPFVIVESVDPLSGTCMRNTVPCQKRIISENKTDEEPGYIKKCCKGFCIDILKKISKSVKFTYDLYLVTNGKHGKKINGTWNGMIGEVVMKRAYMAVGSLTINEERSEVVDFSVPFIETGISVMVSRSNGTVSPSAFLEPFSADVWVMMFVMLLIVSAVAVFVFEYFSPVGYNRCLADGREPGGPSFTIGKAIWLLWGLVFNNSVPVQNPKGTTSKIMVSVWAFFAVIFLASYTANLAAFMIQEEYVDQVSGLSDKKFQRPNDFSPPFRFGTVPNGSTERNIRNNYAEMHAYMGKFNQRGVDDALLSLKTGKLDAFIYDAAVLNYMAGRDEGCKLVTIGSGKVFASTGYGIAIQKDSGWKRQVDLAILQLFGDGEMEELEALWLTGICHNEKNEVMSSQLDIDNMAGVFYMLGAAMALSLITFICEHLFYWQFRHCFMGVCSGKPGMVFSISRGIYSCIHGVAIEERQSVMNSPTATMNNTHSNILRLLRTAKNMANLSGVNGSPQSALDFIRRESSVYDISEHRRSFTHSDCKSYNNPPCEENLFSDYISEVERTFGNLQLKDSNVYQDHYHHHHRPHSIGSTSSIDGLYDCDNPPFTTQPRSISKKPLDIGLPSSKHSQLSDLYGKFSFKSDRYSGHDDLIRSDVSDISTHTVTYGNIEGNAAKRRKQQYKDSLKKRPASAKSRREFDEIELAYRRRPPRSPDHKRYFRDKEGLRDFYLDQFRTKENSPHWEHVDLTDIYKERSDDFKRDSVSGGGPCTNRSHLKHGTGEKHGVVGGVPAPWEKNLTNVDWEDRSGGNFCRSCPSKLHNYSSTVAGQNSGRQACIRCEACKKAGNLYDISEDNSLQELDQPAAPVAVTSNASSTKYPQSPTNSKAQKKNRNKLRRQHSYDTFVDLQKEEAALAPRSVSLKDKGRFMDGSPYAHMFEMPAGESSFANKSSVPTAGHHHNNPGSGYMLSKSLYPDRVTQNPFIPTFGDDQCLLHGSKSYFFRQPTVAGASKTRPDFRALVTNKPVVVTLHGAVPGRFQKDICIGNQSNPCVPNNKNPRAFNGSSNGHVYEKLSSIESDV

- activation at 50 µM [1]: 11.1 ± 1.98%
- activation at 50 µM [2]: -34 ± 2.47%
SMILES: COc1cccc(/C=N/NC(=O)c2ccccc2)c1O [Npam69, (E)-N′-(2-hydroxy-3-methoxybenzylidene)benzohydrazide]

- activation at 100 µM [1]: 52.7 ± 4.87%
- Normalized Potentiation [1]: 3.99 ± 4.92%
- activation at 100 µM [2]: -100 ± 2.83%
SMILES: O=C(N/N=C/c1cccc(O)c1O)c1cccc(I)c1 [Npam30, (E)-N′-(2,3-dihydroxybenzylidene)-3-iodobenzohydrazide]

- activation at 50 µM [1]: 51.8 ± 6.55%
- activation at 50 µM [2]: -46.9 ± 8.94%
SMILES: Cc1cc2ccccc2cc1C(=O)N/N=C/c1cccc(O)c1O [Npam65, (E)-N′-(2,3-dihydroxybenzylidene)-3-methyl-2-naphthohydrazide]

- activation at 50 µM [1]: 35.1 ± 4.85%
- activation at 50 µM [2]: -56.6 ± 7.45%
SMILES: O=C(N/N=C/c1cccc(O)c1O)c1ccc(O)cc1 [Npam68, (E)-N′-(2,3-dihydroxybenzylidene)-4-hydroxybenzohydrazide]

- activation at 50 µM [1]: 30.7 ± 4.76%
- activation at 50 µM [2]: -49.9 ± 6.87%
SMILES: O=C(N/N=C/c1cccc(O)c1O)c1ccc(Br)cc1 [Npam73, (E)-4-bromo-N′-(2,3-dihydroxybenzylidene)benzohydrazide]

- Normalized Potentiation [1]: 284.50 ± 85.20%
SMILES: COc1cc(Br)c(Br)c(/C=N/NC(=O)c2ccccc2Cl)c1O [Npam45, (E)-2-chloro-N′-(2,3-dibromo-6-hydroxy-5-methoxybenzylidene)benzohydrazide]

- Normalized Potentiation [1]: 59.83 ± 7.55%
SMILES: CCOc1cc(Br)cc(/C=N/NC(=O)c2ccc(F)cc2)c1O [Npam22, (E)-N′-(5-bromo-3-ethoxy-2-hydroxybenzylidene)-4-fluorobenzohydrazide]

- activation at 100 µM [1]: 28.2 ± 2.47%
- activation at 100 µM [2]: -54.6 ± 5.87%
SMILES: O=C(N/N=C/c1cccc(O)c1O)c1cccc([N+](=O)[O-])c1 [Npam64, (E)-N′-(2,3-dihydroxybenzylidene)-3-nitrobenzohydrazide]

- Normalized Potentiation [1]: 97.62 ± 6.03%
SMILES: C=CCc1cc(/C=N/NC(=O)c2ccccc2Br)c(O)c(OC)c1 [Npam03, (E)-N′-(5-allyl-2-hydroxy-3-methoxybenzylidene)-2-bromobenzohydrazide]

- Normalized Potentiation [1]: 130.54 ± 13.63%
SMILES: CCOc1cc(Cl)c(Cl)c(/C=N/NC(=O)c2ccccc2C)c1O [Npam17, (E)-N′-(2,3-dichloro-5-ethoxy-6-hydroxybenzylidene)-2-methylbenzohydrazide]

- Normalized Potentiation [1]: 103.77 ± 11.00%
SMILES: CCOc1cccc(/C=N/NC(=O)c2cccc(Cl)c2C)c1O [Npam07, (E)-3-chloro-N′-(3-ethoxy-2-hydroxybenzylidene)-2-methylbenzohydrazide]

- Normalized Potentiation [1]: −0.278 ± 5.62%
SMILES: CCOc1cc(/C=N/NC(=O)c2ccccc2Br)cc(Br)c1O [Npam27, (E)-2-bromo-N′-(3-bromo-5-ethoxy-4-hydroxybenzylidene)benzohydrazide]

- Normalized Potentiation [1]: 37.27 ± 4.64%
SMILES: CCOc1cc(Br)cc(/C=N/NC(=O)c2ccccc2N)c1O [Npam21, (E)-2-amino-N′-(5-bromo-3-ethoxy-2-hydroxybenzylidene)benzohydrazide]

- Normalized Potentiation [1]: 441.05 ± 150.41%
- EC50 [1]: 100 nM
SMILES: CCOc1cc(Cl)c(Cl)c(/C=N/NC(=O)c2ccc(OC)cc2)c1O [Npam48, (E)-N′-(2,3-dichloro-5-ethoxy-6-hydroxybenzylidene)-4-methoxybenzohydrazide]

- activation at 100 µM [1]: 57.2 ± 3.78%
- activation at 100 µM [2]: -17 ± 2.14%
SMILES: COc1cc(Cl)cc(/C=N/NC(=O)c2ccccc2Br)c1O [Npam75, (E)-2-bromo-N′-(5-chloro-2-hydroxy-3-methoxybenzylidene)benzohydrazide]

- Normalized Potentiation [1]: 441.11 ± 36.50%
- EC50 [1]: 250 nM
SMILES: CCOc1cc(Cl)c(Cl)c(/C=N/NC(=O)c2cccc(Br)c2C)c1O [Npam50, 3-bromo-N′-[(1E)-(2,3-dichloro-5-ethoxy-6-hydroxyphenyl)methylidene]-2-methylbenzohydrazide]

- Selectivity for GluN1/GluN2A versus GluN1/GluN2B NMDARs ([1]; FIG. 2, HEK293 cells expressing GluN1/GluN2A and GluN1/GluN2B): selective for GluN1/GluN2A NMDARs
- activation at 100 µM [1]: 118 ± 18.5%
- activation at 100 µM [2]: -24.2 ± 4.55%
SMILES: COc1cc([N+](=O)[O-])cc(/C=N/NC(=O)c2ccccc2C)c1O [Npam72, (E)-N′-(2-hydroxy-3-methoxy-5-nitrobenzylidene)-2-methylbenzohydrazide]

- Normalized Potentiation [1]: 374.58 ± 19.07%
- EC50 [1]: 250 nM
SMILES: CCOc1cc(Cl)c(Cl)c(/C=N/NC(=O)c2cccc(Br)c2)c1O [Npam32, (E)-3-bromo-N′-(2,3-dichloro-5-ethoxy-6-hydroxybenzylidene)benzohydrazide]

- activation at 50 µM [1]: 41.7 ± 6.78%
- activation at 50 µM [2]: -48.6 ± 4.77%
SMILES: Cc1cccc(C(=O)N/N=C/c2cccc(O)c2O)c1 [Npam71, (E)-N′-(2,3-dihydroxybenzylidene)-3-methylbenzohydrazide]

- Normalized Potentiation [1]: 175.53 ± 25.9%
SMILES: CCOc1cc(Cl)c(Cl)c(/C=N/N(C)C(=O)c2ccccc2)c1O [Npam52, N′-[(1E)-(2,3-dichloro-5-ethoxy-6-hydroxyphenyl)methylidene]-N-methylbenzohydrazide]

- Normalized Potentiation [1]: 213.58 ± 43.58%
SMILES: CCOc1cc(Cl)cc(/C=N/NC(=O)c2ccccc2Br)c1O [Npam18, (E)-2-bromo-N′-(5-chloro-3-ethoxy-2-hydroxybenzylidene)benzohydrazide]

- Normalized Potentiation [1]: 292.08 ± 44.70%
SMILES: CCOc1cc(Br)c(Br)c(/C=N/NC(=O)c2ccccc2C)c1O [Npam04C, (E)-N′-(2,3-dibromo-5-ethoxy-6-hydroxybenzylidene)-2-methylbenzohydrazide]

SMILES: CC(C(O)c1ccc(O)cc1)N1CCC(Cc2ccccc2)CC1 (stereo not drawn) [ifenprodril, reference compound]
- Block of GluN1/GluN2B NMDAR currents [2]: successfully blocked

- Normalized Potentiation [1]: 118.15 ± 35.54%
SMILES: CCOc1cc(Br)c(Br)c(/C=N/NC(=O)c2ccccc2OC)c1O [Npam12, (E)-N′-(2,3-dibromo-5-ethoxy-6-hydroxybenzylidene)-2-methoxybenzohydrazide]

- Normalized Potentiation [1]: 201.19 ± 14.63%
SMILES: CCOc1cc(Cl)c(Cl)c(/C=N/NC(=O)c2cncc(Br)c2)c1O [Npam06, (E)-5-bromo-N′-(2,3-dichloro-5-ethoxy-6-hydroxybenzylidene)nicotinohydrazide]

- Normalized Potentiation [1]: 224.79 ± 24.78%
SMILES: COc1cc(Br)cc(/C=N/NC(=O)c2cccc(Br)c2)c1O [Npam47, (E)-3-bromo-N′-(5-bromo-2-hydroxy-3-methoxybenzylidene)benzohydrazide]

- Normalized Potentiation [1]: 426.44 ± 87.65%
- EC50 [1]: 190 nM
SMILES: CCOc1cc(Br)cc(/C=N/NC(=O)c2cccc(Br)c2)c1O [Npam38, (E)-3-bromo-N′-(5-bromo-3-ethoxy-2-hydroxybenzylidene)benzohydrazide]

- Normalized Potentiation [1]: 196.54 ± 21.20%
SMILES: COc1cc(Br)c(Br)c(/C=N/NC(=O)c2ccccc2Br)c1O [Npam05, (E)-2-bromo-N′-(2,3-dibromo-6-hydroxy-5-methoxybenzylidene)benzohydrazide]

- Normalized Potentiation [1]: 362.76 ± 38.44%
SMILES: CCOc1cc(Cl)c(Cl)c(/C=N/NC(=O)NC(=O)COc2c(C)ccc(C)c2C)c1O [Npam08, (E)-2-(2,3-dichloro-5-ethoxy-6-hydroxybenzylidene)-N-(2-(2,3,6-trimethylphenoxy)acetyl)hydrazinecarboxamide]

- Normalized Potentiation [1]: 61.57 ± 8.15%
SMILES: CCOc1cc([N+](=O)[O-])cc(/C=N/NC(=O)c2cc(Cl)ccc2O)c1O [Npam24, (E)-5-chloro-N′-(3-ethoxy-2-hydroxy-5-nitrobenzylidene)-2-hydroxybenzohydrazide]
